Source: US11385234B2, “Methods and systems for detecting an analyte or classifying a sample” (Commonwealth Scientific and Industrial Research Organisation, priority 2012, dated 2022)
One block for each compound: values may come before it.

Key:
GFP^2—MBP—RLuc2 = GFP^2—MBP—RLuc2 (Escherichia coli, UniProt P0AEX9); assay: BRET^2 tagged MBP sugar assay, plate reader; format: binding; conditions: 0.1 mM sugar, 30 minutes at 28° C., 1 μM protein
Protocol: 1 μM purified protein was used for all the energy transfer assays (final volume of 100 μL). […] Purified protein was incubated with the sugar dissolved in double deionised water or water for 30 minutes at 28° C.
BRET ratios were calculated as the ratio of maximum acceptor emission intensity to maximum donor emission intensity.
All data analysis was carried out using GraphPad Prism (version 5 for Windows, Graphpad Software, San Diego, Calif., USA). All data will be reported as means± standard deviation (SD) unless otherwise stated in the text. Two-tailed unpaired t-tests will be performed using Graphpad prism. Statistical significance is defined as p<0.05.

[1] = biological target: GMR sensor (GFP^2—MBP—RLUC2) (Escherichia coli, UniProt P0AEX9); conditions: 0.1 mM sugar
Protocol: On-chip measurements were carried out with microfluidic mixers with two inlets, a passive micromixer and an integrated optical detection chamber. BRET^2 measurements were recorded by using two photo multiplier tubes one equipped with an RLuc/Clz400a emission filter (410 nm bandpass 80 nm) and the other with a GFP^2 emission filter (515 nm bandpass 30m). The optical emission was collected by using an optical fiber with 1 mm core diameter aligned with on-chip optical detection chamber through a dichroic mirror.
The preparation was then mixed on-chip with 5 μM coelenterazine 400a and the optical signal was recorded from the detection chamber. The control experiments was carried out by incubating protein preparations with water and mixing on the chip under the same conditions.
Sensitivity assays were carried out on a two input microfluidic mixing device (FIG. 8b) with a serpentine common channel of L=18 mm. The BRET reaction chamber was Ø=4 mm and H=1 mm with no mirror. A bifurcated light guide was used with a 6 mm trunk and NA=0.59. […] The incubated sample and 31.25 μM Clz400a substrate were each pumped onto the chip at input flow rates of 400 μl/hr. The trunk end of the light guide was used to collect signal from the BRET reaction chamber. […] The BRET^2 signal was measured at each concentration. […]

thrombin = biological target: T1, thrombin (Bos taurus, UniProt P00735); assay: Hirudin pre-incubation in thrombin cleavage assay of GFP^2-RG-RLuc (BRET^H ratio, SDS-PAGE); format: biochemical
T1 construct: purchased Amersham Biosciences
Protocol: Various concentrations of thrombin were added to purified GFP^2-RG-RLuc biosensor and incubated at 30° C. for 90 minutes. To measure the extent of thrombin cleavage the sample mixture following incubation and the native CLZ solution were pumped from separate syringes into the two inlet channels and allowed to flow through the main channel. Diffusion between the two streams induced a BRET reaction at the interface. Recombinant hirudin from yeast (Sigma) was incubated with thrombin at room temperature for ten minutes prior to the protease assay.
To confirm complete thrombin cleavage of the GFP^2-RG-RLuc biosensor, SDS-PAGE analysis was carried out. Proteins (2.5 μg) were diluted in 1× sample loading buffer (Invitrogen) for SDS-gel electrophoresis in a 12% Bis-Tris gel with MOPS running buffer (NuPAGE, Invitrogen). Bands were stained with Fast Stain™ (Fisher) and then visualised.
Using the microplate spectrometer, hybrid BRET ratios were calculated as the ratio of bioluminescence emissions measured at 500 nm and 470 nm. Using the microchip system, the hybrid BRET ratio was calculated as ratio of the long wavelength emission (515 nm-555 nm) to the short wavelength emission (430 nm-455 nm) (Pfleger and Eidne, 2006). To allow comparison between the two different detection systems, the Hybrid BRET ratios were normalized by expressing them as a multiple of the BRET ratio without added thrombin, in the same measurement system. All data are reported as means±standard deviation (SD). Two-tailed unpaired t-tests were performed using Graphpad prism (version 5.00 for Windows, Graphpad Software, San Diego, Calif., USA). Statistical significance is defined as p<0.05.

Compound: O=C(CO)[C@@H](O)[C@H](O)[C@H](O)CO [fructose]
response of BRET biosensor to sugar (GFP^2—MBP—RLuc2): did not respond

Compound: OC[C@H]1O[C@H](OC[C@H]2O[C@H](O[C@]3(CO)O[C@H](CO)[C@@H](O)[C@@H]3O)[C@H](O)[C@@H](O)[C@@H]2O)[C@H](O)[C@@H](O)[C@H]1O [raffinose]
response of BRET biosensor to sugar (GFP^2—MBP—RLuc2): did not respond

Compound: OC[C@H]1O[C@@](CO)(O[C@H]2O[C@H](CO)[C@@H](O)[C@H](O)[C@H]2O)[C@@H](O)[C@@H]1O [sucrose]
response of BRET biosensor to sugar (GFP^2—MBP—RLuc2): did not respond
increase in BRET^2 ratio over no sugar control, on chip [1]: 15%

BRET^H ratio with pre-addition of hirudin (thrombin; 54 nM thrombin pre-treated with 2 units hirudin, 10 minutes, room temperature): 1.08±0.14
effect of hirudin on thrombin induced reduction in BRET^H ratio (thrombin; 2 units hirudin, 10 minutes, room temperature): prevented the thrombin induced reduction
Compound: hirudin
effect of hirudin on cleavage of fusion protein, SDS-PAGE (thrombin; 2 units hirudin, SDS-PAGE lane 6): inhibited the formation of the two components

Compound: maltotriose
amplitude of the change in BRET ratio (GFP^2—MBP—RLuc2): 17.03%
